Measurements from US6849421B2, “Assays for compounds modulating human serine protease C-E” (Ortho-McNeil Pharmaceutical, Inc., priority 1999, dated 2005).
Ends that are not written are not given here. * marks the point of attachment. pNA = O=[N+]([O-])c1ccc(N*)cc1

T1: activated protease C-E-6XHIS (Homo sapiens, UniProt Q9GZN4)
T1 construct: made in house; host or cells: Sf9 insect cells (baculovirus, pFastBac1)
T1 sequence (Q9GZN4 with tags, fused parts or gaps): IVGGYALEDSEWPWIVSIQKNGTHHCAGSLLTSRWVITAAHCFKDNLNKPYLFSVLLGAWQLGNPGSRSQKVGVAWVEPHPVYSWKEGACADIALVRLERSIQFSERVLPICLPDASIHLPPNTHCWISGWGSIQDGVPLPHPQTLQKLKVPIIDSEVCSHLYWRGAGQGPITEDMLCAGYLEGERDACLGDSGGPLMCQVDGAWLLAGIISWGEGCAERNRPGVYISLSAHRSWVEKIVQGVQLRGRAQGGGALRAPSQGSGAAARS


Experiments:
[1] = molecular target: T1, activated protease C-E-6XHIS; experiment: Chromogenic amidolytic activity assay, release of para-nitroaniline (pNA) from synthetic substrates; type: biochemical; settings: recombinant activated protease C-E-6XHIS; substrate 500 uM; 10 mM Tris-HCl pH 7.8, 25 mM NaCl, 25 mM imidazole; 37° C., 90 minutes; 405 nm; N.A. = No Activity
Procedure: Eluted protein concentration was determined by a Micro BCA Kit (Pierce, Rockford, Ill.) using bovine serum albumin as a standard. Amidolytic activities of the activated protease C-E-6XHIS was monitored by release of para-nitroaniline (pNA) from the synthetic substrates indicated in Table 1. The chromogenic substrates used in these studies were all commercially available (Bachem California Inc., Torrance, Pa.; American Diagnostica Inc., Greenwich, Conn.; Kabi Pharmacia Hepar Inc., Franklin, Ohio). Assay mixtures contained chromogenic substrates at 500 uM and 10 mM Tris-HCl (pH 7.8), 25 mM NaCl, and 25 mM imidazole. Release of pNA was measured over 90 minutes at 37° C. on a micro-plate reader (Molecular Devices, Menlo Park, Calif.) with a 405 mn absorbance filter. The initial reaction rates (Vmax, mOD/min) were determined from plots of absorbance versus time using Softmax (Molecular Devices, Menlo Park, Calif.). The specific activities (nmole pNA produced/min/μg protein) of the activated protease C-E-6XHIS for the various substrates are presented in Table 1.
Amidolytic activities of the activated serine proteases are monitored by release of para-nitroaniline (pNA) from synthetic substrates that are commercially available (Bachem California Inc., Torrance, Pa.; American Diagnostica Inc., Greenwich, Conn.; Kabi Pharmacia Hepar Inc., Franklin, Ohio). Assay mixtures contain chromogenic substrates in 500 uM and 10 mM TRIS-HCl (pH 7.8), 25 mM NaCl, and 25 mM imidazole. Release of pNA is measured over 120 min at 37° C. on a micro-plate reader (Molecular Devices, Menlo Park, Calif.) with a 405 nm absorbance filter. The initial reaction rates (Vmax, mOD/min) are determined from plots of absorbance versus time using Softmax (Molecular Devices, Menlo Park, Calif.). […] Although in the present case chromogenic activity is monitored by an increase in absorbance, fluorogenic assays or other methods such as FRET to measure proteolytic activity as mentioned above, can be employed. […]

[2] = Chromogenic amidolytic activity of the purified unactivated zymogen; type: biochemical, human; settings: not cleaved with enterokinase, same chromogenic substrates

Molecule | Specific Activity [1] | chromogenic amidolytic activity [2]
H—D—Lys(CBO)—Pro—Arg—pNA | 0.002 ± 0.000 nmole pNA produced/min/μg protein | –
H—D—Pro—HHT—Arg—pNA | 0.008 ± 0.001 nmole pNA produced/min/μg protein | –
Phe-Arg-pNA | 0.058 ± 0.006 nmole pNA produced/min/μg protein | –
PFEK-protease C-E-6XHIS zymogen: secreted recombinant zymogen of human serine protease C-E catalytic domain with FLAG, enterokinase site and 6XHIS tag, from Sf9 cells (protein) MDSKGSSQKSRLLLLLVVSNLLLCQGVVSDYKDDDDVDAAALAAPFDDDDKIVGGYALEDSEWPWIVSIQKNGTHHCAGSLLTSRWVITAAHCFKDNLNKPYLFSVLLGAWQLGNPGSRSQKVGVAWVEPHPVYSWKEGACADIALVRLERSIQFSERVLPICLPDASIHLPPNTHCWISGWGSIQDGVPLPHPQTLQKLKVPIIDSEVCSHLYWRGAGQGPITEDMLCAGYLEGERDACLGDSGGPLMCQVDGAWLLAGIISWGEGCAERNRPGVYISLSAHRSWVEKIVQGVQLRGRAQGGGALRAPSQGSGAAARSSRHHHHHH | – | No measurable chromogenic amidolytic activity
